target: human Nav1.7 (Homo sapiens (Human), UniProt Q15858); test: Human Nav1.7 inhibitory activity evaluation (automated patch clamp QPatch16X, HEK293A cells stably expressing human Nav1.7 and human Navβ1); format: cell-based; conditions: HEK293A cells stably expressing human Nav1.7 and human Navβ1, automated patch clamp QPatch16X
Method in brief: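 QPatch16X whole-cell recordings at room temperature from HEK293A cells stably expressing human Nav1.7 with Navβ1, CsF-based internal solution, pH 7.4 external, 0.1% DMSO. From −100 mV holding, protocol included a 15 s hold at a potential inactivating ~30-40% of channels; IC50 from inward current at the second −10 mV pulse.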

Chain of human Nav1.7 (Q15858 whole entry): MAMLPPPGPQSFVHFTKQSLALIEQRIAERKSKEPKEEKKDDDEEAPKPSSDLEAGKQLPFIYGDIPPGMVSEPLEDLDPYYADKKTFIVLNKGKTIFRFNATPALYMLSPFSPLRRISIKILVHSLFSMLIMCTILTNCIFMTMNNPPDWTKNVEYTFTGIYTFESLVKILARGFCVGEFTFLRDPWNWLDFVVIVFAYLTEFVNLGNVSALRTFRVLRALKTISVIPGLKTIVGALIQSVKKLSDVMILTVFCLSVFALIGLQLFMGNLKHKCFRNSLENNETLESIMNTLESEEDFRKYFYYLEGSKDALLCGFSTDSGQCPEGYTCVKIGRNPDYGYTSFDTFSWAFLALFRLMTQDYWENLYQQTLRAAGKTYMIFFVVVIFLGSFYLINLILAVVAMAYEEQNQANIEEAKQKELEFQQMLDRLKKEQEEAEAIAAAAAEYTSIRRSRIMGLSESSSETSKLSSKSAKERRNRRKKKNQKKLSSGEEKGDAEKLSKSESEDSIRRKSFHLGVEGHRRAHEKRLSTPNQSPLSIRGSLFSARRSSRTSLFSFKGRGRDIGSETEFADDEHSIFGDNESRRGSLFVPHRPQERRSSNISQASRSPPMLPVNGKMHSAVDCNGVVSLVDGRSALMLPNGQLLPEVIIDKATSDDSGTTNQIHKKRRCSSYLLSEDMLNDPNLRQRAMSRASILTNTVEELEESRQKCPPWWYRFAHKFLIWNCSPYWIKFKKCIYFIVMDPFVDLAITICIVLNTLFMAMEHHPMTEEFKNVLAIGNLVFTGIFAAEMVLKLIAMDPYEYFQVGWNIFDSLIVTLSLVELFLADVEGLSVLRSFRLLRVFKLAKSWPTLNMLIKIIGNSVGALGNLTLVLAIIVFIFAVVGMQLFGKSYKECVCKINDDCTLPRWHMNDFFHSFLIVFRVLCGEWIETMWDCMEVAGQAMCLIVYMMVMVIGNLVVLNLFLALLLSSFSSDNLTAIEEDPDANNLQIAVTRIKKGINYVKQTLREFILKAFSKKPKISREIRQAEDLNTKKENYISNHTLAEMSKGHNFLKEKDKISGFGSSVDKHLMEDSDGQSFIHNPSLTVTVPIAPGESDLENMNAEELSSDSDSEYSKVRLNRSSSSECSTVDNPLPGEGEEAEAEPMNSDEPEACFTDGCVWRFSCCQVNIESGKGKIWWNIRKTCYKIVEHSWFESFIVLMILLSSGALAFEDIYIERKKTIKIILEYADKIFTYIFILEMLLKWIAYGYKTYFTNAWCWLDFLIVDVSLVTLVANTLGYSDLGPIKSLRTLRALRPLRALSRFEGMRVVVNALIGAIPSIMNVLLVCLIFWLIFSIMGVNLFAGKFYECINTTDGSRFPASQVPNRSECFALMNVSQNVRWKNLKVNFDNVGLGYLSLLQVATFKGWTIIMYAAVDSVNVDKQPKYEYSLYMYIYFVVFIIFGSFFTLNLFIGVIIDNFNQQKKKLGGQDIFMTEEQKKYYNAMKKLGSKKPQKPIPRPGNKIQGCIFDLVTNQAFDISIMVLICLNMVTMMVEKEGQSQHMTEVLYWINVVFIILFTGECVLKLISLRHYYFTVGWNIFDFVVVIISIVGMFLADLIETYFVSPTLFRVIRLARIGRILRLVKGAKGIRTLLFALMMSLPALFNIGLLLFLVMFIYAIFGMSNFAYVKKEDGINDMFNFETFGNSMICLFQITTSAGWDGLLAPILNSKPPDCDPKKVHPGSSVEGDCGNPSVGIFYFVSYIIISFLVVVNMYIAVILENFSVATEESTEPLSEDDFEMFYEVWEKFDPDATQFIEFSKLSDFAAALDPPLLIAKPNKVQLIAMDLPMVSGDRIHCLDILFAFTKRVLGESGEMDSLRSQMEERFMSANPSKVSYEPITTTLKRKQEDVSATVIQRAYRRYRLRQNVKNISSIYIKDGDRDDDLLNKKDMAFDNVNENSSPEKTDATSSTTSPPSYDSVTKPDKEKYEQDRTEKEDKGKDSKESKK
Chain of human Nav1.7 (Q07699 19-218 partner): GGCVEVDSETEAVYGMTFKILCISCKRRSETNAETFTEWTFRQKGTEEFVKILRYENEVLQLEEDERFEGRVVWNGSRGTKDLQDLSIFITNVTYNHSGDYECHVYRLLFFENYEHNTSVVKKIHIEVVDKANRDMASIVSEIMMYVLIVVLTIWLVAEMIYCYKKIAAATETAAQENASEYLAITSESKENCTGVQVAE

Row | IC50 | SMILES
1 | < 10000 nM | O=C(N[C@H]1COc2ccccc2C1)c1cn2c(n1)CNC(c1ccccc1)C2 (stereo partly shown) [Example 56]
2 | < 1000 nM | COc1cccc(-c2c(C(=O)N[C@H]3COc4ccccc4C3)nc3n2CC(C(F)(F)F)CC3)n1 (stereo partly shown) [Example 15]
3 | < 1000 nM | N#Cc1ccc2c(c1)C[C@@H](NC(=O)c1cc3n(n1)CCC(CSc1ccccc1)O3)CO2 (stereo partly shown) [Example 119]
4 | < 10000 nM | COc1ccc2c(c1)CC(NC(=O)c1cn3c(n1)CCC(C(F)(F)F)C3)CO2 (stereo not shown) [Example 13]

same assay, conditions: human Nav1.7, automated patch clamp

Row | IC50 | SMILES
5 | < 1000 nM | O=C(N[C@H]1COc2ccc(CCOC(F)F)cc2C1)c1cc2n(n1)CC(CCOC(F)F)O2 (stereo partly shown) [Example 216]
6 | < 1000 nM | O=C(N[C@H]1COc2ccc(Cl)cc2C1)c1cc2n(n1)CCC(COCC(F)(F)F)O2 (stereo partly shown) [Example 442]
7 | < 10000 nM | N#Cc1ccc2c(c1)C[C@@H](NC(=O)c1cc3n(n1)CCC(CC(F)(F)F)O3)CO2 (stereo partly shown) [Example 562]
8 | < 1000 nM | COC1c2cc(C(F)(F)F)ccc2OC[C@@H]1NC(=O)c1cc2n(n1)CCC(COCC(F)(F)F)O2 (single isomer, unassigned; isomer a) [598(isomer A)]
9 | < 1000 nM | COc1cccc(-c2c(C(=O)N[C@H]3COc4ccc(Cl)cc4C3)nn3c2CCCC3)n1 [Example 348]
10 | < 10000 nM | O=C(N[C@H]1COc2ccc(CCOC(F)(F)F)cc2C1)c1cc2n(n1)CC(CCN1CC(F)(F)C1)O2 (single isomer, unassigned) [240 (isomer A)]
11 | < 10000 nM | O=C(N[C@H]1COc2ccc(C(F)(F)F)cc2C1O)c1cc2n(n1)CCC(C(F)F)O2 (single isomer, unassigned) [534 (isomer A)]
12 | < 10000 nM | CN(C)C(=O)COCc1ccc2c(c1)C[C@@H](NC(=O)c1cc3n(n1)CCC(c1ccccc1F)O3)CO2 (stereo partly shown) [Example 370]
13 | < 1000 nM | Cn1ccc(-c2ccc3c(c2)C[C@@H](NC(=O)c2cc4n(n2)CC(CCOCC(F)(F)F)O4)CO3)n1 (single isomer, unassigned) [206 (isomer A)]
14 | < 1000 nM | N#Cc1ccc2c(c1)C[C@@H](NC(=O)c1cc3n(n1)CCN(CC1CCC1)C3)CO2 [Example 498]
15 | < 10000 nM | O=C(N[C@H]1COc2ccc(C(F)(F)F)cc2C1)c1cc2n(n1)CCN(CCOCC(F)F)C2 [Example 666]
16 | < 1000 nM | O=C(N[C@H]1COc2ccc(COCC(F)(F)F)cc2C1)c1cc2n(n1)CCN(CCC1CC1)C2 [Example 505]
17 | < 10000 nM | CC1(COCC2CC2)Cn2nc(C(=O)N[C@H]3COc4ccc(CC(F)F)cc4C3)cc2O1 (stereo partly shown) [Example 619]
18 | < 1000 nM | O=C(N[C@H]1COc2ccc(CCOC(F)F)cc2C1)c1cc2n(n1)CCC(C(F)F)O2 (single isomer, unassigned) [165 (isomer A)]
19 | < 1000 nM | O=C(N[C@H]1COc2ccc(COCC(F)(F)F)cc2C1)c1cc2n(n1)CCC(C1COCCO1)O2 (stereo partly shown) [Example 631]
20 | < 10000 nM | CCC1(O)CCn2nc(C(=O)N[C@H]3COc4ccc(C(F)(F)F)cc4C3F)cc2OC1 (stereo partly shown) [Example 656]
21 | < 1000 nM | O=C(N[C@H]1COc2ccc(Cl)cc2C1)c1cc2n(n1)CCC(COC(F)(F)F)O2 (stereo partly shown) [Example 420]
22 | < 10000 nM | O=C(N[C@H]1COc2ccc(C(F)(F)F)cc2C1OCC(F)(F)F)c1cc2n(n1)CCC(C(F)F)O2 (stereo partly shown) [Example 536]
23 | < 1000 nM | O=C(N[C@H]1COc2ccc(COCC(F)(F)F)cc2C1)c1cc2n(n1)CCC(C1CCCO1)O2 (stereo partly shown) [Example 651]
24 | < 10000 nM | CN(C)CCOCc1ccc2c(c1)C[C@@H](NC(=O)c1cc3n(n1)CCC(c1ccccc1F)O3)CO2 (stereo partly shown) [Example 369]
25 | < 1000 nM | O=C(N[C@H]1COc2ccc(CC(F)F)cc2C1)c1cc2n(n1)CCC(C(F)(F)F)CO2 (stereo partly shown) [Example 633]

Row | IC50 | SMILES
26 | < 10000 nM | N#Cc1ccc2c(c1)C[C@@H](NC(=O)c1cc3n(n1)CCC(C1CCOCC1)O3)CO2 (stereo partly shown) [Example 585]
27 | < 1000 nM | Cn1cc(-c2ccc3c(c2)C[C@@H](NC(=O)c2cc4n(n2)CC(CCOC2CCC2)O4)CO3)cn1 (stereo partly shown) [Example 473]
28 | < 10000 nM | O=C(c1cn2c(n1)CCC(c1cccc(N3CC(O)C3)n1)C2)N1CCC(c2ccccc2)C1 (stereo not shown) [Example 309]
29 | < 1000 nM | N#Cc1ccc2c(c1)C[C@@H](NC(=O)c1cc3n(n1)CC(CC1CCOCC1)O3)CO2 (stereo partly shown) [Example 565]
30 | < 1000 nM | O=C(N[C@H]1COc2ccc(CC(F)(F)F)cc2C1)c1cc2n(n1)CCC(COCC(F)(F)F)O2 (stereo partly shown) [Example 441]
31 | < 1000 nM | O=C(N[C@H]1COc2ccc(C(F)(F)F)cc2C1F)c1cc2n(n1)CCN(CC1CCO1)C2 (stereo partly shown) [Example 646]
32 | < 10000 nM | O=C(N[C@H]1COc2ccc(C(F)(F)F)cc2C1O)c1cc2n(n1)CCC(OCCOCC(F)(F)F)CO2 (single isomer, unassigned) [Example 681]
33 | < 10000 nM | Cc1cnc(-c2ccc3c(c2)C[C@@H](NC(=O)c2cc4n(n2)CC(COCC(F)(F)F)O4)CO3)cn1 (single isomer, unassigned) [194 (isomer A)]
34 | < 1000 nM | O=C(N[C@H]1COc2ccc(C(F)(F)F)cc2C1F)c1cc2n(n1)CCN(CCC(F)(F)F)C2 (stereo partly shown) [Example 647]
35 | < 10000 nM | CCN(CC1Cn2nc(C(=O)N[C@H]3COc4ccc(C#N)cc4C3)cc2O1)CC(F)(F)F (stereo partly shown) [Example 452]
36 | < 1000 nM | O=C(N[C@H]1COc2ccc(COCC(F)(F)F)cc2C1)c1cc2n(n1)CCC(CCOC(F)F)O2 (single isomer, unassigned) [150 (isomer A)]
37 | < 10000 nM | O=C(N[C@H]1COc2ccc(C(F)(F)F)cc2C1)c1nn2c(c1-c1ccn[nH]1)OCC2 [Example 249]
38 | < 1000 nM | O=C(N[C@H]1COc2ccc(C(F)(F)F)cc2C1F)c1cc2n(n1)CCN(CCOCC1CC1)C2 (stereo partly shown) [Example 654]
39 | < 1000 nM | N#Cc1ccc2c(c1)C[C@@H](NC(=O)c1cc3n(n1)CCC(CSCC(F)(F)F)O3)CO2 (stereo partly shown) [Example 423]
40 | < 10000 nM | COC(C)(C)C#CC1CCn2nc(C(=O)N[C@H]3COc4ccc(C#N)cc4C3)cc2O1 (stereo partly shown) [Example 394]
41 | < 1000 nM | O=C(N[C@H]1COc2ccc(COCC(F)(F)F)cc2C1)c1cc2n(n1)CCN(CCOCC(F)(F)F)C2 [Example 667]
42 | < 10000 nM | O=C(NC1COc2ccc(F)c(F)c2C1)c1cc2n(n1)CCC(C(F)(F)F)O2 (stereo not shown) [Example 626]
43 | < 1000 nM | COc1cccc(-c2c(C(=O)N[C@H]3COc4ccc(C(F)(F)F)cc4C3)nn3c2COCC3)n1 [Example 484]
44 | < 1000 nM | N#Cc1ccc2c(c1)C[C@@H](NC(=O)c1cc3n(n1)CCN(CCc1ccc(F)cc1)C3)CO2 [Example 269]
45 | < 10000 nM | CC1(C)CCn2nc(C(=O)N[C@H]3COc4ccc(-c5ccc(C#N)nc5)cc4C3)cc2O1 [Example 179]
46 | < 10000 nM | N#Cc1ccc2c(c1)C[C@@H](NC(=O)c1cc3n(n1)CCC(C(O)C(F)(F)F)O3)CO2 (stereo partly shown) [Example 417]

Row | IC50 | SMILES
47 | < 1000 nM | COC1c2cc(C(F)(F)F)ccc2OC[C@@H]1NC(=O)c1cc2n(n1)CC(CCOCC(F)(F)F)O2 (stereo partly shown) [Example 621]
48 | < 1000 nM | O=C(N[C@H]1COc2ccc(-c3cnccn3)cc2C1)c1cc2n(n1)CC(CCOCC1(C(F)(F)F)CC1)O2 (stereo partly shown) [Example 467]
49 | < 1000 nM | O=C(N[C@H]1COc2ccc(Cl)cc2C1)c1nn2c(c1-c1ccccn1)COCC2 [Example 515]
50 | < 10000 nM | O=C(N[C@H]1COc2ccc(C(F)(F)F)cc2C1)c1cc2n(n1)CC(CCNCC(F)(F)F)O2 (single isomer, unassigned) [230 (isomer B)]
51 | < 1000 nM | O=C(N[C@H]1COc2ccc(CCOC(F)(F)F)cc2C1)c1nc2n(c1-c1ccccn1)CCCC2 [Example 306]
52 | < 10000 nM | O=C(N[C@H]1COc2ccc(C(F)(F)F)cc2C1O)c1cc2n(n1)CC(CCCOCC(F)(F)F)O2 (single isomer, unassigned) [616 (isomer B)]
53 | < 1000 nM | O=C(N[C@H]1COc2ccc(COCC(F)(F)F)cc2C1)c1cc2n(n1)CCC(C1CCOC1)O2 (stereo partly shown) [Example 630]
54 | < 1000 nM | O=C(NC1COc2ccc(Cl)cc2C1)c1cc2n(n1)CCC(c1ccccc1)O2 (stereo not shown) [Example 355]
55 | < 1000 nM | N#Cc1ccc2c(c1)C[C@@H](NC(=O)c1cc3n(n1)CC(CCC1CCOCC1)O3)CO2 (stereo partly shown) [Example 623]
56 | < 1000 nM | O=C(N[C@H]1COc2ccc(Cl)cc2C1)c1cc2n(n1)CCC(CC1CCOCC1)O2 (stereo partly shown) [Example 395]
57 | < 1000 nM | O=C(N[C@H]1COc2ccc(Cl)cc2C1)c1cc2n(n1)CC(COCCOCC(F)(F)F)O2 (stereo partly shown) [Example 658]
58 | < 10000 nM | N#Cc1ccc2c(c1)C[C@@H](NC(=O)c1cc3n(n1)CCC(COCCC(F)(F)F)O3)CO2 (stereo partly shown) [Example 418]
59 | < 1000 nM | N#Cc1ccc2c(c1)C[C@@H](NC(=O)c1cc3n(n1)CCC(COCC(F)(F)F)CO3)CO2 (stereo partly shown) [Example 555]
60 | < 10000 nM | O=C(N[C@H]1COc2ccc(CC(F)F)cc2C1)c1cc2n(n1)CCC(COCC(F)(F)F)CO2 (single isomer, unassigned) [601 (isomer A)]
61 | < 1000 nM | O=C(N[C@H]1COc2ccc(C(F)(F)F)cc2C1)c1cc2n(n1)CCC(C1COCCO1)O2 (stereo partly shown) [Example 620]
62 | < 1000 nM | O=C(N[C@H]1COc2ccc(C(F)(F)F)cc2C1)c1nn2c(c1-c1ccn[nH]1)COCC2 [Example 259, (R)-3-(1H-pyrazol-5-yl)-N-(6-(trifluoromethyl)chroman-3-yl)-6,7-dihydro-4H-pyrazolo[5,1-c][1,4]oxazine-2-carboxamide]
63 | < 1000 nM | CC1(C)CN(CC2Cn3nc(C(=O)N[C@H]4COc5ccc(C(F)(F)F)cc5C4)cc3O2)CCO1 (stereo partly shown) [Example 458]
64 | < 10000 nM | N#Cc1ccc2c(c1)C[C@@H](NC(=O)c1cc3n(n1)CC(CCCOCC(F)F)O3)CO2 (single isomer, unassigned) [604 (isomer B)]
65 | < 10000 nM | Cc1cnc(-c2ccc3c(c2)C[C@@H](NC(=O)c2cc4n(n2)CC(COCC(F)(F)F)O4)CO3)cn1 (stereo partly shown) [Example 193]
66 | < 10000 nM | CCC1(O)CCn2nc(C(=O)N[C@H]3COc4ccc(C(F)(F)F)cc4C3)cc2OC1 (stereo partly shown) [Example 582]

Row | SMILES | IC50
67 | COC1c2cc(C(F)(F)F)ccc2OC[C@@H]1NC(=O)c1cc2n(n1)CC(COCC(F)(F)F)O2 (stereo partly shown) [Example 569] | < 1000 nM
